Assays:
[1] = human gut metagenome, 24 h, 2 µM
[2] = The drug is tested on WLS-310 corresponding to human gut metagenome with ENA study accession number: PRJEB37062 and ENA sample accession number: ERS12561785 for biotransformation under anaerobic condition. The drug concentrations were measured over 9 timepoints collected between 0 and 24 hours of incubation by liquid-chromatography-coupled mass spectrometry (LC–MS); details: 2 µM
[3] = human gut metagenome, 24 h, 2 µM; remark: listed apart in the source
[4] = The drug is tested on Z-028 corresponding to mouse gut metagenome with ENA study accession number: PRJEB37062 and ENA sample accession number: ERS12561827 for biotransformation under anaerobic condition. The drug concentrations were measured over 9 timepoints collected between 0 and 24 hours of incubation by liquid-chromatography-coupled mass spectrometry (LC–MS); details: 2 µM
[5] = human gut metagenome, 24 h, 2 µM; remark: listed apart in the source
[6] = The drug is tested on Z-006 corresponding to mouse gut metagenome with ENA study accession number: PRJEB37062 and ENA sample accession number: ERS12561806 for biotransformation under anaerobic condition. The drug concentrations were measured over 9 timepoints collected between 0 and 24 hours of incubation by liquid-chromatography-coupled mass spectrometry (LC–MS); details: 2 µM
[7] = human gut metagenome, 24 h, 2 µM; remark: listed apart in the source
[8] = The drug is tested on WLS-240 corresponding to human gut metagenome with ENA study accession number: PRJEB37062 and ENA sample accession number: ERS12561773 for biotransformation under anaerobic condition. The drug concentrations were measured over 9 timepoints collected between 0 and 24 hours of incubation by liquid-chromatography-coupled mass spectrometry (LC–MS); details: 2 µM
[9] = The drug is tested on Z-026 corresponding to metagenome with ENA study accession number: PRJEB37062 and ENA sample accession number: ERS12561825 for biotransformation under anaerobic condition. The drug concentrations were measured over 9 timepoints collected between 0 and 24 hours of incubation by liquid-chromatography-coupled mass spectrometry (LC–MS); details: 2 µM
[10] = human gut metagenome, 24 h, 2 µM; remark: listed apart in the source
[11] = human gut metagenome, 24 h, 2 µM; remark: listed apart in the source
[12] = human gut metagenome, 24 h, 2 µM; remark: listed apart in the source
[13] = human gut metagenome, 24 h, 2 µM; remark: listed apart in the source
[14] = The drug is tested on Z-003 corresponding to pig gut metagenome with ENA study accession number: PRJEB37062 and ENA sample accession number: ERS12561803 for biotransformation under anaerobic condition. The drug concentrations were measured over 9 timepoints collected between 0 and 24 hours of incubation by liquid-chromatography-coupled mass spectrometry (LC–MS); details: 2 µM
[15] = The drug is tested on Z-017 corresponding to mouse gut metagenome with ENA study accession number: PRJEB37062 and ENA sample accession number: ERS12561816 for biotransformation under anaerobic condition. The drug concentrations were measured over 9 timepoints collected between 0 and 24 hours of incubation by liquid-chromatography-coupled mass spectrometry (LC–MS); details: 2 µM
[16] = The drug is tested on Z-012 corresponding to metagenome with ENA study accession number: PRJEB37062 and ENA sample accession number: ERS12561812 for biotransformation under anaerobic condition. The drug concentrations were measured over 9 timepoints collected between 0 and 24 hours of incubation by liquid-chromatography-coupled mass spectrometry (LC–MS); details: 2 µM
[17] = human gut metagenome, 24 h, 2 µM; remark: listed apart in the source
[18] = human gut metagenome, 24 h, 2 µM; remark: listed apart in the source
[19] = human gut metagenome, 24 h, 2 µM; remark: listed apart in the source
[20] = human gut metagenome, 24 h, 2 µM; remark: listed apart in the source

Measured: Bacterial Biotransformation
Also: call rule not given here.

OCCN1CCN(CCCN2c3ccccc3Sc3ccc(C(F)(F)F)cc32)CC1 [FLUPHENAZINE]
Compound NOT metabolized: [5] | [9] | [10] | [15] | [17]
Compound metabolized: all other assays above

COc1ccc2c3c1O[C@H]1C[C@@H](O)C=C[C@@]31CCN(C)C2 [GALANTAMINE]
Compound metabolized: [1] | [2] | [8] | [10] | [17] | [18] | [19]
Compound NOT metabolized: all other assays above

Cc1ccc(S(=O)(=O)NC(=O)NN2CC3CCCC3C2)cc1 (stereo not given) [GLICLAZIDE]
Compound NOT metabolized: [15]
Compound metabolized: all other assays above

Source: ChEMBL document CHEMBL5724914, “Linking interpersonal differences in gut microbiota composition and drug biotransformation activity” (2024)
